# Tests used:
# [1] = test system: Rattus norvegicus; assay: Anticonvulsant activity against maximal electroshock-induced seizures in po dosed rat; type: functional
# [2] = molecular target: Carbonic anhydrase 7 (Homo sapiens, UniProt P43166)
# Description: Inhibition of human carbonic anhydrase 7 preincubated with compound for 15 mins by carbon dioxide hydration assay
# [3] = molecular target: Carbonic anhydrase 14 (Homo sapiens, UniProt Q9ULX7)
# Description: Inhibition of human carbonic anhydrase 14 preincubated with compound for 15 mins by carbon dioxide hydration assay
# [4] = molecular target: Carbonic anhydrase 1 (Homo sapiens, UniProt P00915)
# Description: Inhibition of human carbonic anhydrase 1 preincubated with compound for 15 mins by carbon dioxide hydration assay
# [5] = molecular target: Carbonic anhydrase 2 (Homo sapiens, UniProt P00918)
# Description: Inhibition of human carbonic anhydrase 2 preincubated with compound for 15 mins by carbon dioxide hydration assay
# Chain of Carbonic anhydrase 7 (P43166 whole entry): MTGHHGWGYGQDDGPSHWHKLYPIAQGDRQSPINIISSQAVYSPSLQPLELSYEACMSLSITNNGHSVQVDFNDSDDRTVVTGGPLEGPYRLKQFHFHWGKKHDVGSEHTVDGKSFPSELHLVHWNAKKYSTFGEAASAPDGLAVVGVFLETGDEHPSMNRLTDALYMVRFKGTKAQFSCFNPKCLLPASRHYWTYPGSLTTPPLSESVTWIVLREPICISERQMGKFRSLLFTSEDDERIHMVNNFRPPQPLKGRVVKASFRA
# Chain of Carbonic anhydrase 14 (Q9ULX7 whole entry): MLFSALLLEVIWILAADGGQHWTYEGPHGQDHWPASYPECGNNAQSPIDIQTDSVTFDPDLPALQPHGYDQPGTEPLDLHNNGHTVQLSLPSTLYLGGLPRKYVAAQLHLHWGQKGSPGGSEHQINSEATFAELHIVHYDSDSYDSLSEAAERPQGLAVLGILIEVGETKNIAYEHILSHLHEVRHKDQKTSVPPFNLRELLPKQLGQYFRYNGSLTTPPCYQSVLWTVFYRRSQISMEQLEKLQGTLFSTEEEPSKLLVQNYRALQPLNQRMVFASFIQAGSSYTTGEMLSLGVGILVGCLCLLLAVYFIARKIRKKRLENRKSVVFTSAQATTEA
# Chain of Carbonic anhydrase 1 (P00915 whole entry): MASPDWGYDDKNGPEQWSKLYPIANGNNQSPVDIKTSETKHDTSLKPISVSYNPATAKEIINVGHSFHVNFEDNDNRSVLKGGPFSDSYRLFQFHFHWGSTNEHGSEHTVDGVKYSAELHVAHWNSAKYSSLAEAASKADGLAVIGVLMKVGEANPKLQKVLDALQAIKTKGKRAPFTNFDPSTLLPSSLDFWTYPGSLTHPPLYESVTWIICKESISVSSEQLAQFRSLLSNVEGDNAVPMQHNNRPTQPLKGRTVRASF
Compound,ED50 [1] [µmol/kg],other results
NS(=O)(=O)c1ccc(NC(=O)Cc2ccccc2)cc1,55,Ki [2]: 52 nM; Ki [3]: 46 nM; Ki [4]: 7.6 nM
CCCC(C(=O)Nc1ccc(S(N)(=O)=O)cc1)C(C)C (configuration not stated),139,–
NS(=O)(=O)Cc1noc2ccccc12 [ZONISAMIDE],100,–
CC(C)C(C(=O)Nc1ccc(S(N)(=O)=O)cc1)C(C)(C)C (configuration not stated),58,–
CCCCC(CC)C(=O)Nc1ccc(S(N)(=O)=O)cc1 (configuration not stated),80,–
CCC(C)CC(=O)Nc1ccc(S(N)(=O)=O)cc1 (configuration not stated),61,–
CCCC(CC)C(=O)Nc1ccc(S(N)(=O)=O)cc1 (configuration not stated),41,–
CC1(C)O[C@@H]2[C@@H](CO[C@@]3(COS(N)(=O)=O)OC(C)(C)O[C@@H]23)O1 [TOPIRAMATE],10,–
CCC(CC)C(=O)NCCc1ccc(S(N)(=O)=O)cc1,–,Ki [2]: 51 nM; Ki [5]: 33.8 nM; Ki [3]: 684 nM; Ki [4]: 407 nM
CC(C)(C)CC(=O)Nc1ccc(S(N)(=O)=O)cc1,35,–
CCC(C)C(=O)Nc1ccc(S(N)(=O)=O)cc1 (configuration not stated),30,–
CCC(CC)C(=O)Nc1ccc(S(N)(=O)=O)cc1,37,–
CC(C)(C)C(=O)Nc1ccc(S(N)(=O)=O)cc1,165,–
CCCC(C)C(=O)Nc1ccc(S(N)(=O)=O)cc1 (configuration not stated),40,Ki [2]: 605 nM; Ki [5]: 220 nM; Ki [3]: 644 nM; Ki [4]: 1710 nM
CCCC(C(=O)Nc1ccc(S(N)(=O)=O)cc1)C(C)CC (configuration not stated),115,–
CCC(CC)C(=O)NCc1ccc(S(N)(=O)=O)cc1,87,–
CCC(CC(C)C)C(=O)Nc1ccc(S(N)(=O)=O)cc1 (configuration not stated),56,–
